Results from PubChem BioAssay (NCI).
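96-well plates; 48 h exposure; 5 concentrations. Endpoints by linear interpolation between flanking doses. Not reached: highest tested concentration assigned. The concentration for full growth arrest is given as TGI.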

Tests used:
Test in all cases: growth of human tumour cells (NCI), 48 h
MOLT-4 leukemia = system: MOLT-4 leukemia
UO-31 renal = system: UO-31 renal
SK-MEL-2 melanoma = system: SK-MEL-2 melanoma
NCI-H522 lung = system: NCI-H522 lung
MCF7 breast = system: MCF7 breast
CCRF-CEM leukemia = system: CCRF-CEM leukemia
SF-295 CNS = system: SF-295 CNS
DU-145 prostate = system: DU-145 prostate
UACC-257 melanoma = system: UACC-257 melanoma
SNB-75 CNS = system: SNB-75 CNS
CAKI-1 renal = system: CAKI-1 renal
EKVX NSCLC = system: EKVX NSCLC
KM12 colon = system: KM12 colon
OVCAR-8 ovarian = system: OVCAR-8 ovarian
NCI-H23 lung = system: NCI-H23 lung
HOP-92 NSCLC = system: HOP-92 NSCLC
HOP-62 NSCLC = system: HOP-62 NSCLC
UACC-62 melanoma = system: UACC-62 melanoma
SF-539 CNS = system: SF-539 CNS
HCT-15 colon = system: HCT-15 colon
TK-10 renal = system: TK-10 renal
T-47D breast = system: T-47D breast
NCI-H460 lung = system: NCI-H460 lung
SW-620 colon = system: SW-620 colon
NCI-H226 lung = system: NCI-H226 lung
786-0 renal = system: 786-0 renal
HS 578T breast = system: HS 578T breast
HT29 colon = system: HT29 colon
SN12C renal = system: SN12C renal
PC-3 prostate = system: PC-3 prostate
MDA-N = system: MDA-N
RPMI-8226 leukemia = system: RPMI-8226 leukemia
SR leukemia = system: SR leukemia
OVCAR-3 ovarian = system: OVCAR-3 ovarian
BT-549 breast = system: BT-549 breast
LOX IMVI melanoma = system: LOX IMVI melanoma
A549 NSCLC = system: A549 NSCLC
COLO 205 colon = system: COLO 205 colon
RXF 393 renal = system: RXF 393 renal
K-562 leukemia = system: K-562 leukemia
SK-MEL-28 melanoma = system: SK-MEL-28 melanoma
SF-268 CNS = system: SF-268 CNS
M14 melanoma = system: M14 melanoma
MDA-MB-231 breast = system: MDA-MB-231 breast
ACHN renal = system: ACHN renal
IGROV1 ovarian = system: IGROV1 ovarian
HCT-116 colon = system: HCT-116 colon
SK-MEL-5 melanoma = system: SK-MEL-5 melanoma
MDA-MB-435 = system: MDA-MB-435
HCC-2998 colon = system: HCC-2998 colon
NCI/ADR-RES ovarian = system: NCI/ADR-RES ovarian
HL-60(TB) leukemia = system: HL-60(TB) leukemia
SK-OV-3 ovarian = system: SK-OV-3 ovarian
U251 CNS = system: U251 CNS
OVCAR-5 ovarian = system: OVCAR-5 ovarian
MALME-3M melanoma = system: MALME-3M melanoma
OVCAR-4 ovarian = system: OVCAR-4 ovarian
SNB-19 CNS = system: SNB-19 CNS

**Q.** For `O=c1oc2ccccc2cc1-c1cn2c(n1)sc1ccccc12`, which TGI (MOLT-4 leukemia) is on record?
**A.** > 100 µM

**Q.** And the TGI (UO-31 renal)?
**A.** > 100 µM

**Q.** What about the TGI (SK-MEL-2 melanoma) of the same compound?
**A.** > 100 µM

**Q.** And the TGI (NCI-H522 lung)?
**A.** > 100 µM

**Q.** And the TGI (MCF7 breast)?
**A.** 77.4 µM

**Q.** What about the TGI (CCRF-CEM leukemia) of the same compound?
**A.** > 100 µM

**Q.** And the TGI (SF-295 CNS)?
**A.** > 100 µM

**Q.** And the TGI (DU-145 prostate)?
**A.** > 100 µM

**Q.** What about the TGI (UACC-257 melanoma) of the same compound?
**A.** > 100 µM

**Q.** And the TGI (SNB-75 CNS)?
**A.** > 100 µM

**Q.** What about the TGI (CAKI-1 renal) of the same compound?
**A.** > 100 µM

**Q.** What about the TGI (EKVX NSCLC) of the same compound?
**A.** 34.3 µM

**Q.** What about the TGI (KM12 colon) of the same compound?
**A.** > 100 µM

**Q.** What about the TGI (OVCAR-8 ovarian) of the same compound?
**A.** > 100 µM

**Q.** What about the TGI (NCI-H23 lung) of the same compound?
**A.** > 100 µM

**Q.** And the TGI (HOP-92 NSCLC)?
**A.** > 100 µM

**Q.** What about the TGI (HOP-62 NSCLC) of the same compound?
**A.** > 100 µM

**Q.** What about the TGI (UACC-62 melanoma) of the same compound?
**A.** > 100 µM

**Q.** And the TGI (SF-539 CNS)?
**A.** > 100 µM

**Q.** What about the TGI (HCT-15 colon) of the same compound?
**A.** > 100 µM

**Q.** What about the TGI (TK-10 renal) of the same compound?
**A.** > 100 µM

**Q.** And the TGI (T-47D breast)?
**A.** > 100 µM

**Q.** And the TGI (NCI-H460 lung)?
**A.** > 100 µM

**Q.** And the TGI (SW-620 colon)?
**A.** > 100 µM

**Q.** And the TGI (NCI-H226 lung)?
**A.** > 100 µM

**Q.** And the TGI (786-0 renal)?
**A.** > 100 µM

**Q.** What about the TGI (HS 578T breast) of the same compound?
**A.** > 100 µM

**Q.** And the TGI (HT29 colon)?
**A.** 11.8 µM

**Q.** What about the TGI (SN12C renal) of the same compound?
**A.** > 100 µM

**Q.** And the TGI (PC-3 prostate)?
**A.** > 100 µM

**Q.** And the TGI (MDA-N)?
**A.** > 100 µM

**Q.** What about the TGI (RPMI-8226 leukemia) of the same compound?
**A.** > 100 µM

**Q.** And the TGI (SR leukemia)?
**A.** > 100 µM

**Q.** What about the TGI (OVCAR-3 ovarian) of the same compound?
**A.** > 100 µM

**Q.** What about the TGI (BT-549 breast) of the same compound?
**A.** > 100 µM

**Q.** And the TGI (LOX IMVI melanoma)?
**A.** > 100 µM

**Q.** What about the TGI (A549 NSCLC) of the same compound?
**A.** > 100 µM

**Q.** What about the TGI (COLO 205 colon) of the same compound?
**A.** > 100 µM

**Q.** What about the TGI (RXF 393 renal) of the same compound?
**A.** > 100 µM

**Q.** What about the TGI (K-562 leukemia) of the same compound?
**A.** > 100 µM

**Q.** And the TGI (SK-MEL-28 melanoma)?
**A.** > 100 µM

**Q.** What about the TGI (SF-268 CNS) of the same compound?
**A.** > 100 µM

**Q.** And the TGI (M14 melanoma)?
**A.** > 100 µM

**Q.** And the TGI (MDA-MB-231 breast)?
**A.** > 100 µM

**Q.** And the TGI (ACHN renal)?
**A.** > 100 µM

**Q.** And the TGI (IGROV1 ovarian)?
**A.** > 100 µM

**Q.** What about the TGI (HCT-116 colon) of the same compound?
**A.** > 100 µM

**Q.** And the TGI (SK-MEL-5 melanoma)?
**A.** > 100 µM

**Q.** And the TGI (MDA-MB-435)?
**A.** > 100 µM

**Q.** What about the TGI (HCC-2998 colon) of the same compound?
**A.** > 100 µM

**Q.** And the TGI (NCI/ADR-RES ovarian)?
**A.** > 100 µM

**Q.** And the TGI (HL-60(TB) leukemia)?
**A.** > 100 µM

**Q.** And the TGI (SK-OV-3 ovarian)?
**A.** > 100 µM

**Q.** What about the TGI (U251 CNS) of the same compound?
**A.** > 100 µM

**Q.** For `Cc1cc(=O)n2nc(CCl)sc2n1`, which TGI (MOLT-4 leukemia) is on record?
**A.** 36.3 µM

**Q.** What about the TGI (UO-31 renal) of the same compound?
**A.** 28.8 µM

**Q.** What about the TGI (OVCAR-5 ovarian) of the same compound?
**A.** 28.9 µM

**Q.** And the TGI (SK-MEL-2 melanoma)?
**A.** 28.7 µM

**Q.** What about the TGI (NCI-H522 lung) of the same compound?
**A.** 20 µM

**Q.** And the TGI (MCF7 breast)?
**A.** 28.7 µM

**Q.** And the TGI (CCRF-CEM leukemia)?
**A.** 40.8 µM

**Q.** And the TGI (SF-295 CNS)?
**A.** 42.9 µM

**Q.** And the TGI (DU-145 prostate)?
**A.** 40.6 µM

**Q.** What about the TGI (UACC-257 melanoma) of the same compound?
**A.** 25.2 µM

**Q.** What about the TGI (SNB-75 CNS) of the same compound?
**A.** 28.6 µM

**Q.** What about the TGI (CAKI-1 renal) of the same compound?
**A.** 23.1 µM

**Q.** And the TGI (EKVX NSCLC)?
**A.** 36 µM

**Q.** What about the TGI (KM12 colon) of the same compound?
**A.** 27.4 µM

**Q.** What about the TGI (OVCAR-8 ovarian) of the same compound?
**A.** 35.5 µM

**Q.** And the TGI (NCI-H23 lung)?
**A.** 47.1 µM

**Q.** And the TGI (HOP-92 NSCLC)?
**A.** 28.2 µM

**Q.** What about the TGI (HOP-62 NSCLC) of the same compound?
**A.** 40.2 µM

**Q.** What about the TGI (UACC-62 melanoma) of the same compound?
**A.** 46.9 µM

**Q.** And the TGI (SF-539 CNS)?
**A.** 34.1 µM

**Q.** And the TGI (HCT-15 colon)?
**A.** 27.1 µM

**Q.** What about the TGI (TK-10 renal) of the same compound?
**A.** 23 µM

**Q.** And the TGI (T-47D breast)?
**A.** 32.3 µM

**Q.** And the TGI (MALME-3M melanoma)?
**A.** 26.4 µM

**Q.** What about the TGI (NCI-H460 lung) of the same compound?
**A.** 29.5 µM

**Q.** What about the TGI (SW-620 colon) of the same compound?
**A.** 37.5 µM

**Q.** And the TGI (NCI-H226 lung)?
**A.** 34.9 µM

**Q.** What about the TGI (786-0 renal) of the same compound?
**A.** 37 µM

**Q.** What about the TGI (HS 578T breast) of the same compound?
**A.** 55.9 µM

**Q.** And the TGI (HT29 colon)?
**A.** 30.5 µM

**Q.** What about the TGI (SN12C renal) of the same compound?
**A.** 35 µM

**Q.** What about the TGI (PC-3 prostate) of the same compound?
**A.** 29.8 µM

**Q.** And the TGI (MDA-N)?
**A.** 27.7 µM

**Q.** And the TGI (RPMI-8226 leukemia)?
**A.** 50.6 µM

**Q.** What about the TGI (OVCAR-4 ovarian) of the same compound?
**A.** 32.4 µM

**Q.** What about the TGI (SR leukemia) of the same compound?
**A.** 87 µM

**Q.** What about the TGI (OVCAR-3 ovarian) of the same compound?
**A.** 28.4 µM

**Q.** And the TGI (BT-549 breast)?
**A.** 17.5 µM

**Q.** What about the TGI (LOX IMVI melanoma) of the same compound?
**A.** 17.1 µM

**Q.** And the TGI (A549 NSCLC)?
**A.** 35 µM

**Q.** What about the TGI (COLO 205 colon) of the same compound?
**A.** 33.5 µM

**Q.** And the TGI (RXF 393 renal)?
**A.** 20.8 µM

**Q.** What about the TGI (K-562 leukemia) of the same compound?
**A.** 37.7 µM

**Q.** What about the TGI (SK-MEL-28 melanoma) of the same compound?
**A.** 28.6 µM

**Q.** And the TGI (SF-268 CNS)?
**A.** 39.5 µM

**Q.** And the TGI (M14 melanoma)?
**A.** 23.4 µM

**Q.** What about the TGI (MDA-MB-231 breast) of the same compound?
**A.** 37.5 µM

**Q.** What about the TGI (ACHN renal) of the same compound?
**A.** 27.5 µM

**Q.** And the TGI (IGROV1 ovarian)?
**A.** 37 µM

**Q.** And the TGI (SNB-19 CNS)?
**A.** 39 µM

**Q.** And the TGI (HCT-116 colon)?
**A.** 24.9 µM

**Q.** What about the TGI (SK-MEL-5 melanoma) of the same compound?
**A.** 23 µM

**Q.** What about the TGI (MDA-MB-435) of the same compound?
**A.** 26.3 µM

**Q.** What about the TGI (HCC-2998 colon) of the same compound?
**A.** 31.1 µM

**Q.** And the TGI (NCI/ADR-RES ovarian)?
**A.** 48 µM

**Q.** What about the TGI (HL-60(TB) leukemia) of the same compound?
**A.** 38.2 µM

**Q.** What about the TGI (SK-OV-3 ovarian) of the same compound?
**A.** 53.2 µM

**Q.** What about the TGI (U251 CNS) of the same compound?
**A.** 20.3 µM
